Assay results: publication PMC2939913 (Journal of medicinal chemistry, 2010)
Where “and” joins values, the source holds several entries; their conditions need not be identical. Equal entries are not always repeated.

Columns and labels:
P. falciparum D6 (CQS) = assay: Inhibition of P. falciparum growth; format: cell-based; conditions: Plasmodium falciparum, D6, 72 h, read-out: IC50 (nM) for P. falciparum D6
P. falciparum Dd2 (CQR) = assay: Inhibition of P. falciparum growth; format: cell-based; conditions: Plasmodium falciparum, DD2, 72 h, read-out: IC50 (nM) for P. falciparum Dd2
[1] = test system: CQS D6-infected RBCs (P. falciparum); assay: Accumulation experiment in parasitized red blood cells, D6; format: cell-based; conditions: for Uptake: by 6 × 10^7 PRBCs after 1 hour of incubation, initial medium ∼ 5 µM, ±5%
[2] = test system: CQR Dd2-infected RBCs (P. falciparum); assay: Accumulation experiment in parasitized red blood cells, Dd2; format: cell-based; conditions: for Uptake: by 6 × 10^7 PRBCs after 1 hour of incubation, initial medium ∼ 5 µM, ±5%
[3] = General cytotoxicity, mitogen-stimulated murine spleenic lymphocytes; format: cell-based; conditions: mouse, mitogen-stimulated murine splenic lymphocytes
β-hematin = β-hematin inhibition; format: biochemical; conditions: for IC50: read-out: β-hematin inhibition, 40 µM heme, acetate pH 4.8, Tween20, 24 hours at 37°C
[4] = test system: hemozoin production in D6 P. falciparum; assay: Hemozoin inhibition in cell culture; format: cell-based; conditions: 24 hours
[5] = test system: hemozoin production in Dd2 P. falciparum; assay: Hemozoin inhibition in cell culture; format: cell-based
P. berghei = assay: Mouse efficacy against P. berghei; conditions: for Mouse survival (days): 1 × 30 mg/kg
[6] = Signs of toxicity when administered to mice; format: in vivo; conditions: administered to mice in the P. berghei experiments
[7] = Heme-drug binding by optical titration; conditions: apparent; 2:1 heme to drug stoichiometry; 5 µM heme, phosphate buffer pH 5.7
[8] = [concentration in DV / concentration in medium]

**Q.** For `CCN(CC)CCCC(C)Nc1ccnc2cc(Cl)ccc12` (stereo not shown) [CQ, chloroquine, reference compound], which IC50 (P. falciparum D6 (CQS)) is on record?
**A.** 6.9 nM

**Q.** And the IC50 (P. falciparum Dd2 (CQR))?
**A.** 102 nM

**Q.** And the “Uptake” value [1]?
**A.** 7e-09 mol

**Q.** What about the “Uptake” value [2] of the same compound?
**A.** 5e-09 mol

**Q.** Which IC50 [3] does the source give for `CN(CCCNc1ccnc2cc(Cl)ccc12)CCCN1c2ccccc2CCc2ccccc21` [Compound 1] here?
**A.** 0.7 µM

**Q.** And the Accumulation ratio [1, 8]?
**A.** 32,000

**Q.** And the “Uptake” value [1]?
**A.** 1.6e-08 mol

**Q.** And the “increase of DV concentration over initial medium concentration” value ([1]; initial medium concentration ∼ 5 µM)?
**A.** 13,000 fold

**Q.** And the Accumulation ratio [2, 8]?
**A.** 38,000

**Q.** What about the “Uptake” value [2] of the same compound?
**A.** 1.8e-08 mol

**Q.** And the IC50 (β-hematin)?
**A.** 9 µM

**Q.** And the “hemozoin formation by microscopy” value ([4]; 100 nM drug)?
**A.** some hemozoin present

**Q.** What about the “hemozoin formation by microscopy” value ([5]; 100 nM drug, 24 hours (not shown)) of the same compound?
**A.** also the case

**Q.** And the “Mouse survival (days)” value (P. berghei; oral)?
**A.** Mice euthanized day 3

**Q.** For `Clc1ccc2c(NCCN3CCN(C(c4ccccc4)c4ccccc4)CC3)ccnc2c1` [Compound 4, N-(2-(4-Benzhydrylpiperazin-1-yl)ethyl)-7-chloroquinolin-4-amine], which IC50 [3] is on record?
**A.** 1.9 µM

**Q.** What about the IC50 (β-hematin) of the same compound?
**A.** 2.5 µM

**Q.** And the “Mouse survival (days)” value (P. berghei; subcutaneous)?
**A.** Mice euthanized day 3

**Q.** And the “increase in survival days compared to control animals” value (P. berghei; 4 × 30 mg/kg, oral)?
**A.** ~10 days

**Q.** Which results are given for `Clc1ccc2c(NCCCN3CCN(C(c4ccccc4)c4ccccc4)CC3)ccnc2c1` [Compound 5, N-(3-(4-Benzhydrylpiperazin-1-yl)propyl)-7-chloroquinolin-4-amine]?
**A.** IC50 [3]: 1.1 µM; IC50 (β-hematin): 3.5 µM

**Q.** For `Clc1ccc2c(NCCCN3CCCN(C(c4ccccc4)c4ccccc4)CC3)ccnc2c1` [Compound 6, N-(3-(4-Benzhydryl-1,4-diazepan-1-yl)propyl)-7-chloroquinolin-4-amine], which IC50 [3] is on record?
**A.** 0.7 µM

**Q.** For `Clc1ccc(C(c2ccccc2)N2CCN(CCNc3ccnc4cc(Cl)ccc34)CC2)cc1` (stereo not shown) [Compound 7, 7-Chloro-N-(2-(4-((4-chlorophenyl)(phenyl)methyl)piperazin-1-yl)ethyl)quinolin-4-amine], which IC50 [3] is on record?
**A.** 1.4 µM

**Q.** With `Clc1ccc(C(c2ccccc2)N2CCN(CCCNc3ccnc4cc(Cl)ccc34)CC2)cc1` (stereo not shown) [Compound 8, 7-Chloro-N-(3-(4-((4-chlorophenyl)(phenyl)methyl)piperazin-1-yl)propyl)quinolin-4-amine] as the compound, how does the IC50 [3] read?
**A.** 0.8 µM

**Q.** Which IC50 [3] does the source give for `Clc1ccc(C(c2ccccc2)N2CCCN(CCCNc3ccnc4cc(Cl)ccc34)CC2)cc1` (stereo not shown) [Compound 9, 7-Chloro-N-(3-(4-((4-chlorophenyl)(phenyl)methyl)-1,4-diazepan-1-yl)propyl)quinolin-4-amine] here?
**A.** 0.9 µM

**Q.** With `Fc1ccc(C(c2ccc(F)cc2)N2CCN(CCCNc3ccnc4cc(Cl)ccc34)CC2)cc1` [Compound 10, N-(3-(4-(Bis(4-fluorophenyl)methyl)piperazin-1-yl)propyl)-7-chloroquinolin-4-amine] as the compound, how does the IC50 [3] read?
**A.** 4.1 µM

**Q.** For `Clc1ccc2c(NCCN3CCCN(C4c5ccccc5-c5ccccc54)CC3)ccnc2c1` [Compound 11, N-(2-(4-(9H-Fluoren-9-yl)-1,4-diazepan-1-yl)ethyl)-7-chloroquinolin-4-amine], which IC50 [3] is on record?
**A.** 2.5 µM

**Q.** With `Clc1ccc2c(NCCCN3CCCN(C4c5ccccc5-c5ccccc54)CC3)ccnc2c1` [Compound 12, N-(3-(4-(9H-Fluoren-9-yl)-1,4-diazepan-1-yl)propyl)-7-chloroquinolin-4-amine] as the compound, how does the IC50 [3] read?
**A.** 2.5 µM

**Q.** Which IC50 [3] does the source give for `CN(CCCN1c2ccccc2CCc2ccccc21)CCNc1ccnc2cc(Cl)ccc12` [Compound 13, N^1-(7-chloroquinolin-4-yl)-N^2-(3-(10,11-dihydro-5H-dibenzo[b,f]azepin-5-yl)propyl)-N^2-methylethane-1,2-diamine] here?
**A.** 1.4 µM

**Q.** And the IC50 (β-hematin)?
**A.** 10 µM

**Q.** With `Clc1ccc2c(NCCCN3CCN(C(c4ccccc4)(c4ccccc4)c4ccccc4)CC3)ccnc2c1` [Compound 15, 7-Chloro-N-(3-(4-tritylpiperazin-1-yl)propyl)quinolin-4-amine] as the compound, how does the “β-hematin inhibition (µM)” value (β-hematin; IC50, 40 µM heme, acetate pH 4.8, Tween20, 24 hours at 37°C) read?
**A.** insoluble

**Q.** And the “Mouse survival (days)” value (P. berghei; subcutaneous)?
**A.** Mice euthanized day 3

**Q.** And the mice cured (P. berghei; 4 × 30 mg/kg, oral, parasite-free on day 30 post-infection)?
**A.** 1/3

**Q.** For `Clc1ccc2c(NCCCN3CCN(C4C5CC6CC(C5)CC4C6)CC3)ccnc2c1` (stereo not shown) [Compound 17, N-(3-(4-(Adamant-2-yl)piperazin-1-yl)propyl)-7-chloroquinolin-4-amine], which IC50 (β-hematin) is on record?
**A.** 14 µM

**Q.** For `Clc1ccc2c(NCCN3CCC(NC(c4ccccn4)c4ccccn4)CC3)ccnc2c1` [Compound 21, 7-Chloro-N-(2-(4-(dipyridin-2-ylmethylamino)piperidin-1-yl)ethyl)quinolin-4-amine], which IC50 (β-hematin) is on record?
**A.** ~2 µM and 2 µM

**Q.** And the mice cured (P. berghei; second trial, 4 × 44 mg/kg, oral (equimolar to 30 mg/kg CQ))?
**A.** 3 out of 3 and 3/3

**Q.** Which IC50 (P. falciparum Dd2 (CQR)) does the source give for `Clc1ccc2c(NCCCN3CCC(NC(c4ccccn4)c4ccccn4)CC3)ccnc2c1` [Compound 22, 7-Chloro-N-(3-(4-(dipyridin-2-ylmethylamino)piperidin-1-yl)propyl)quinolin-4-amine] here?
**A.** 1.6 nM

**Q.** What about the IC50 (β-hematin) of the same compound?
**A.** 1.6 µM

**Q.** And the “hemozoin formation by microscopy” value ([4]; 10 nM drug)?
**A.** appeared to preclude hemozoin formation

**Q.** And the “hemozoin formation by microscopy” value ([5]; 10 nM drug, 24 hours)?
**A.** appeared to preclude hemozoin formation

**Q.** And the “signs of toxicity in mice” value [6]?
**A.** no obvious signs of toxicity

**Q.** And the mice cured (P. berghei; 4 × 30 mg/kg, oral, parasite-free on day 30 post-infection, 30 mg/kg)?
**A.** two of the three and 2/3

**Q.** What about the mice cured (P. berghei; second trial, 4 × 46 mg/kg, oral (equimolar to 30 mg/kg CQ)) of the same compound?
**A.** 9 out of 10 and 9/10

**Q.** Which “Kd [µM (app)]” value [7] does the source give for `OCCN1CCN(C(c2ccccc2)c2ccccc2)CC1` [Compound 26, 2-(4-Benzhydrylpiperazin-1-yl)ethanol] here?
**A.** no activity
